Laboratory results as given in ChEMBL document CHEMBL4321787, “Overview of Recent Strategic Advances in Medicinal Chemistry” (J Med Chem, 2019).
One block for each compound: values may come before it.

Experiments:
[1] = target: T1, Envelope glycoprotein gp160 (Human immunodeficiency virus 1, UniProt Q6QLK5); assay: Inhibition of HIV1 JRFL gp120 assessed as reduction in CD4/gp 120 complex formation incubated for 1 hr by ELISA
Histone deacetylase = assay: Inhibition of HDAC (unknown origin) using Fluoro-Substrate Peptide as substrate by fluorescence assay; type: protein assay, Homo sapiens
[2] = Inhibition of Acinetobacter baumannii N-terminal ADC-7 cephalosporinase expressed in Escherichia coli BL21(DE3) incubated for 5 mins by UV-vis spectrophotometric method
[3] = system: Human immunodeficiency virus 1; assay: Antiviral activity against HIV1 infected in human MT2 cells incubated for 5 days; type: functional, organism-based; conditions: Human immunodeficiency virus 1, MT2, 120 h
[4] = Cytotoxicity against human MT2 cells incubated for 5 days; type: cell-based
[5] = system: Human immunodeficiency virus 1; assay: Antiviral activity against HIV1 3B infected in human MT2 cells incubated for 5 days by MTT assay; type: functional, organism-based; conditions: Human immunodeficiency virus 1, 3B, MT2, 120 h
[6] = Inhibition of HIV1 reverse transcriptase p66/p51 K103N/Y181C mutant infected in human MT2 cells assessed as reduction in viral infection incubated for 5 days
Histone deacetylase 3 = Histone deacetylase 3 (Homo sapiens, UniProt O15379); assay: Inhibition of HDAC3 (unknown origin)
[7] = target: T1, Envelope glycoprotein gp160; assay: Inhibition of HIV1 gp120 assessed as increase in anti-DNP binding to immobilized HIV-1 gp120 incubated for 1 hr by ELISA
Protease = Protease (Human immunodeficiency virus 1, UniProt Q9YQ12); assay: Inhibition of HIV1 protease using RE(Edans)SGIFLETSK(Dabcyl)R as substrate by fluorescence method
Protease, sequence (Q9YQ12 whole entry): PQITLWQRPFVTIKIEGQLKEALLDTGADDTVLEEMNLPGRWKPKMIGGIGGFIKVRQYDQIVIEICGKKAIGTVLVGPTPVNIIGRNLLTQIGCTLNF

T1 sequence (Q6QLK5 whole entry): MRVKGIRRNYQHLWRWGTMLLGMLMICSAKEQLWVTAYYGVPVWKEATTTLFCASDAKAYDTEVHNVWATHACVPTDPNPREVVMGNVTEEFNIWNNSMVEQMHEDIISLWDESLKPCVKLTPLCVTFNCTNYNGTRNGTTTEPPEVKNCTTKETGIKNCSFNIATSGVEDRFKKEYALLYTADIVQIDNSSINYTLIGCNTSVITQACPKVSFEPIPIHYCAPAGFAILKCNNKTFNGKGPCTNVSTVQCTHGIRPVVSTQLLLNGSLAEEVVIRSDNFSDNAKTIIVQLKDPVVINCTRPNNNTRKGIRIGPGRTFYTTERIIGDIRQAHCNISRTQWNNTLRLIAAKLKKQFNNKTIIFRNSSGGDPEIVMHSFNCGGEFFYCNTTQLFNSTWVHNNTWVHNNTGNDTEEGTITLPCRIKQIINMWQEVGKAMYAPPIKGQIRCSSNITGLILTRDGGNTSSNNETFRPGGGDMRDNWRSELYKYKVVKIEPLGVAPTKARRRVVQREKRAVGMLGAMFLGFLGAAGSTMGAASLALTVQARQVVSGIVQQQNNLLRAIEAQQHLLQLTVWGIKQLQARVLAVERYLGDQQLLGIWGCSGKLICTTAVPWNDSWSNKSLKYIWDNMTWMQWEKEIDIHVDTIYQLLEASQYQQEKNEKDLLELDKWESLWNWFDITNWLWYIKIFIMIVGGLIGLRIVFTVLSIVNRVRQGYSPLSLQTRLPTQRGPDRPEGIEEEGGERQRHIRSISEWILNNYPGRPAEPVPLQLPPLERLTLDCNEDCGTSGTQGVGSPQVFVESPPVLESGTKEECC
Histone deacetylase 3, sequence (O15379 whole entry): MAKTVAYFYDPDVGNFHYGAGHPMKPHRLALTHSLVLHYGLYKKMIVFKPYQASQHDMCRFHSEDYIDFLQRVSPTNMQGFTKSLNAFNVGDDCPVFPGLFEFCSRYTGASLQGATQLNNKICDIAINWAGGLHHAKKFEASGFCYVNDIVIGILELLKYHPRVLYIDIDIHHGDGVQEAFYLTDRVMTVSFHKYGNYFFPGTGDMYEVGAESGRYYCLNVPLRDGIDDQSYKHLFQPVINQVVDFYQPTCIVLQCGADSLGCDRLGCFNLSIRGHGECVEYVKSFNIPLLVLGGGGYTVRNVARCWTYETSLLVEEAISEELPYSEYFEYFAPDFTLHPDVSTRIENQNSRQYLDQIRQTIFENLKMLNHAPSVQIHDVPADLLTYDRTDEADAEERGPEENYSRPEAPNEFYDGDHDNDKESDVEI

SMILES: COc1ccnc2[nH]cc(C(=O)C(=O)N3CCN(C(=O)c4ccccc4)C[C@H]3C)c12
IC50 [1]: 8.7 µM

SMILES: O=C(Cc1cccs1)N[C@@H](Cn1cc(C(=O)O)nn1)B(O)O
Ki [2]: 0.044 µM

SMILES: Cc1c(Oc2ccccc2OCCn2ccc(=O)[nH]c2=O)cc(N(C)C(=O)CF)c2ccc(C#N)cc12
EC50 [3]: 0.89 µM | CC50 at 120 h [4]: > 100 µM

SMILES: Cc1c(Oc2ccccc2OCCn2ccc(=O)[nH]c2=O)cc(Cl)c2ccc(C#N)cc12
EC50 [6]: 0.28 µM | EC50 [3]: 0.0062 µM | CC50 at 120 h [4]: > 100 µM

SMILES: Cc1c(Oc2ccccc2OCCn2ccc(=O)[nH]c2=O)cc(N(C)C(=O)CCl)c2ccc(C#N)cc12
EC50 [3]: 0.58 µM | CC50 at 120 h [4]: 32 µM

SMILES: C[C@@H]1CN(C(=O)c2ccccc2)CCN1C(=O)C(=O)c1c[nH]c2nccc(OCCOCCOCCOCCOCCOCCn3cc(COCCOCCOCCOCCNc4ccc([N+](=O)[O-])cc4[N+](=O)[O-])nn3)c12
IC50 [1]: 19.9 µM | EC50 [7]: 37.9 µM

Further lines, with some results ahead:

IC50 (Histone deacetylase): > 100 µM
SMILES: Nc1ccccc1NC(=O)c1ccc(-c2cn(CCc3ccsc3)nn2)cc1

EC50 [3]: 1.6 µM
SMILES: C=CC(=O)Nc1cc(Oc2ccccc2OCCn2ccc(=O)[nH]c2=O)c(C)c2cc(C#N)ccc12
CC50 at 120 h [4]: 11 µM

EC50 [3]: 0.56 µM
SMILES: C=CC(=O)N(C)c1cc(Oc2ccccc2OCCn2ccc(=O)[nH]c2=O)c(C)c2cc(C#N)ccc12
CC50 at 120 h [4]: 32 µM

IC50 [1]: 0.13 µM
SMILES: COc1ccc(-c2ccco2)c2[nH]cc(C(=O)C(=O)N3CCN(C(=O)c4ccccc4)CC3)c12
IC50 [5]: 0.064 nM

IC50 (Histone deacetylase): > 100 µM
SMILES: Nc1ccccc1NC(=O)c1ccc(-c2cn(CCc3cccc([N+](=O)[O-])c3)nn2)s1

IC50 (Histone deacetylase 3): 68 µM
SMILES: O=C(NO)c1cccc(-c2cn(CSc3ccccc3)nn2)c1

IC50 [1]: 0.33 µM | EC50 [7]: 1.12 µM
SMILES: COc1ccc(-c2ccc(CNC(=O)COCCOCCOCCOCCn3cc(COCCOCCOCCOCCNc4ccc([N+](=O)[O-])cc4[N+](=O)[O-])nn3)o2)c2[nH]cc(C(=O)C(=O)N3CCN(C(=O)c4ccccc4)CC3)c12
IC50 [5]: 13 nM

Ki (Protease): 0.5 pM
SMILES: CC(C)CN(C[C@@H](O)[C@H](Cc1ccccc1)NC(=O)O[C@H]1CO[C@H]2OCC[C@H]21)S(=O)(=O)c1ccc(B(O)O)cc1
